Reference: ChEMBL document CHEMBL1135071, “Di- and trisubstituted pyrazolo[1,5-a]pyridine derivatives: synthesis, dopamine receptor binding and ligand efficacy” (Bioorg Med Chem Lett, 2002)

Experiments:
D(2) dopamine receptor [1] = target: T1, D(2) dopamine receptor (Homo sapiens, UniProt P14416); assay: In vitro binding affinity at human cloned dopamine receptor D2 (long) stably expressed in CHO cells by [3H]-Spiperone displacement.; assay type: cell-based
D(2) dopamine receptor [2] = target: T1, D(2) dopamine receptor; assay: In vitro binding affinity at human cloned dopamine receptor D2 (short) stably expressed in CHO cells by [3H]spiperone displacement.; assay type: cell-based
D(4) dopamine receptor [3] = target: T2, D(4) dopamine receptor (Homo sapiens, UniProt P21917); assay: In vitro binding affinity at human cloned dopamine receptor D4 stably expressed in CHO cells by [3H]spiperone displacement.; assay type: cell-based
T2 sequence (P21917 whole entry): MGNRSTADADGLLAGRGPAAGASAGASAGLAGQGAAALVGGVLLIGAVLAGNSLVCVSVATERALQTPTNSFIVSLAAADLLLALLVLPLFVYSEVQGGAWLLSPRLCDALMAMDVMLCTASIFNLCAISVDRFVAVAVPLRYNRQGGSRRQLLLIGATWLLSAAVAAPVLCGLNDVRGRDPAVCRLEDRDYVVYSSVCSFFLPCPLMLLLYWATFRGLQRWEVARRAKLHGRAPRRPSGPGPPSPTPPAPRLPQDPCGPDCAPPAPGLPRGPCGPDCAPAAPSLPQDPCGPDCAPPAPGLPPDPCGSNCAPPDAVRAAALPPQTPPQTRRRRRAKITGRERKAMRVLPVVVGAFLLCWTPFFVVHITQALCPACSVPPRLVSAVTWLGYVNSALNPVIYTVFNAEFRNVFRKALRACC

D(3) dopamine receptor = D(3) dopamine receptor (Homo sapiens, UniProt P35462); assay: In vitro binding affinity at human cloned dopamine receptor D3 stably expressed in CHO cells by [3H]spiperone displacement.; assay type: cell-based
[4] = Compound was tested in vitro for its ability to compete with [3H]-ketanserin at 5-hydroxytryptamine 2 receptor in porcine brain homogenate; assay type: tissue-based
[5] = target: T3, D(4) dopamine receptor (Homo sapiens) (UniProt P21917); assay: Intrinsic activity as rate of incorporation of [3H]thymidine in human D4.2 receptor established in mitogenesis assay relative to quinpirole; assay type: functional
T3 sequence (whole entry): T2 sequence (P21917 whole entry)

D(2) dopamine receptor [6] = target: T1, D(2) dopamine receptor; assay: Binding affinity of compound was tested in vitro for its ability to compete with [3H]spiperone radioligand at cloned human Dopamine receptor D2L stably expressed in CHO cells; assay type: cell-based
D(4) dopamine receptor [7] = target: T2, D(4) dopamine receptor; assay: Tested for the effective concentration against human D4.2 receptor in CHO 10001 cells established in mitogenesis assay; assay type: functional, cell-based

Chain of D(3) dopamine receptor (P35462 whole entry): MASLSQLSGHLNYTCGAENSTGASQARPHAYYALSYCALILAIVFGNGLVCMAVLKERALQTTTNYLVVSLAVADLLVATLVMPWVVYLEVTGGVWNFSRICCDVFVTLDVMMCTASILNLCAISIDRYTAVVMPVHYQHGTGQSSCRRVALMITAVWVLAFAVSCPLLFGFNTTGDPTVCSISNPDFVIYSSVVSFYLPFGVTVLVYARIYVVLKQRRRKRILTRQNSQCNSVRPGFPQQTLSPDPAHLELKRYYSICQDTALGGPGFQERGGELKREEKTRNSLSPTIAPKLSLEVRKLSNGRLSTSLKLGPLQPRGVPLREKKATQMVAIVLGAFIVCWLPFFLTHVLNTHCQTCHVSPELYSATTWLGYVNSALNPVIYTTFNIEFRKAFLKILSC
T1 sequence (P14416 whole entry): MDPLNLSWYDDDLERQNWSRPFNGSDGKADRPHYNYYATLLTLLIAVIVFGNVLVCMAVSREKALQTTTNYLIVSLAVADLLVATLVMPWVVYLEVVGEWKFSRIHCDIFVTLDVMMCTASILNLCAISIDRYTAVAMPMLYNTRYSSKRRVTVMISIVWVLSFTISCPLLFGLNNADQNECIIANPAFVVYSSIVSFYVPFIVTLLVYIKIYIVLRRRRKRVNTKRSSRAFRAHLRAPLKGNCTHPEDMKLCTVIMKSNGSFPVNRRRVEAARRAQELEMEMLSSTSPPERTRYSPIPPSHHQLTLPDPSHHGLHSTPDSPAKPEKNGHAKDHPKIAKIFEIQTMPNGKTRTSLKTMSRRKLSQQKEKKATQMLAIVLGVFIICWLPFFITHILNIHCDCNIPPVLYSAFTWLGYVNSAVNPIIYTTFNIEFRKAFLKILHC

| Compound | Ki (D(2) dopamine receptor [1]) | Ki (D(2) dopamine receptor [2]) | Ki (D(4) dopamine receptor [3]) | Ki (D(3) dopamine receptor) | Ki [4] | Intrinsic activity [5] | Ki (D(2) dopamine receptor [6]) | EC50 (D(4) dopamine receptor [7]) |
| --- | --- | --- | --- | --- | --- | --- | --- | --- |
| O=Cc1cccc2c(CN3CCN(c4ccc(Cl)cc4)CC3)cnn12 | 9.5 µM | 9.2 µM | 0.0026 µM | 5.9 µM |  |  |  |  |
| OCc1cccn2ncc(CN3CCN(c4ccc(Cl)cc4)CC3)c12 | 56 µM | 79 µM | 0.11 µM | > 100 µM |  |  |  |  |
| C#Cc1cccc2c(CN3CCN(c4ccc(Cl)cc4)CC3)c(C)nn12 | 21 µM | 25 µM | 0.0015 µM | 17 µM |  |  |  |  |
| C[Si](C)(C)c1cccc2c(CN3CCN(c4ccc(Cl)cc4)CC3)cnn12 | 3.1 µM | 2.8 µM | 0.0028 µM | 2 µM |  |  |  |  |
| Cc1nn2c(N3CCN(Cc4ccccc4)CC3)cccc2c1CN1CCN(c2ccc(Cl)cc2)CC1 | 0.3 µM | 0.12 µM | 0.026 µM | 0.27 µM |  |  |  |  |
| Cc1cccc2c(CN3CCN(c4ccc(Cl)cc4)CC3)cnn12 | 4.9 µM | 5 µM |  | 3.8 µM |  |  |  |  |
| Cc1nn2c(-c3ccc(F)cc3)cccc2c1CN1CCN(c2ccc(Cl)cc2)CC1 | 14 µM | 16 µM | 0.087 µM | 3.8 µM |  |  |  |  |
| Fc1ccc(-c2cccc3c(CN4CCN(c5ccc(Cl)cc5)CC4)cnn23)cc1 | 15 µM | 15 µM | 0.029 µM | 5.7 µM |  |  |  |  |
| OCc1ccc2c(CN3CCN(c4ccc(Cl)cc4)CC3)cnn2c1 | 28 µM | 22 µM | 0.02 µM | 2.6 µM |  |  |  |  |
| C#Cc1cccc2c(CN3CCN(c4ccc(Cl)cc4)CC3)cnn12 | 3.7 µM | 6.2 µM |  | 4.6 µM |  |  |  |  |
| Cc1cccn2ncc(CN3CCN(c4ccc(Cl)cc4)CC3)c12 | 13 µM | 12 µM |  | 9.4 µM |  |  |  |  |
| Cc1nn2c(C#N)cccc2c1CN1CCN(c2ccc(Cl)cc2)CC1 |  | 58 µM | 0.0023 µM | 21 µM | 1 µM | 26% | 59 µM | 0.012 µM |
| Clc1ccc(N2CCN(Cc3cnn4c(N5CCN(Cc6ccccc6)CC5)cccc34)CC2)cc1 | 0.64 µM | 0.4 µM | 0.18 µM | 0.41 µM |  |  |  |  |
| N#Cc1cccc2c(CN3CCN(c4ccc(Cl)cc4)CC3)cnn12 |  | 45 µM | 0.0015 µM | 26 µM | 0.18 µM | 31% | 44 µM | 0.0015 µM |
| Cc1nn2c(-c3ccccc3)cccc2c1CN1CCN(c2ccc(Cl)cc2)CC1 | 28 µM | 24 µM | 0.037 µM | 3.1 µM |  |  |  |  |
| Clc1ccc(N2CCN(Cc3cnn4c(-c5ccccc5)cccc34)CC2)cc1 | 5.4 µM | 2.8 µM | 0.0076 µM | 0.84 µM |  |  |  |  |
